Laboratory results taken from US10213415B2, “Compounds as opioid receptor modulators” (JANSSEN PHARMACEUTICA NV, priority 2004, dated 2019).

Key:
mu opioid receptor = biological target: T1, mu opioid receptor (Rattus norvegicus, UniProt P33535); experiment: Rat Brain Mu Opioid Receptor Binding Assay (and Version 2a, [3H]DAMGO); conditions: rat forebrain membranes, margin of error 10-20%, read-out: r Ki μ
T1 construct: from tissue; host or cells: forebrain of male Wistar rats
Protocol: Male, Wistar rats (150-250 g, VAF, Charles River, Kingston, N.Y.) are killed by cervical dislocation, and their brains removed and placed immediately in ice cold Tris HCl buffer (50 mM, pH 7.4). The forebrains are separated from the remainder of the brain by a coronal transection, beginning dorsally at the colliculi and passing ventrally through the midbrain-pontine junction. After dissection, the forebrains are homogenized in Tris buffer in a Teflon® glass homogenizer. The homogenate is diluted to a concentration of 1 g of forebrain tissue per 80 mL Tris and centrifuged at 39,000×g for 10 min. The pellet is resuspended in the same volume of Tris buffer containing 5 mM MgCl2 with several brief pulses from a Polytron homogenizer. This particulate preparation is used for the mu-opioid binding assays. […] The filters are rinsed three times with 2 mL of 10 mM HEPES (pH7.4), and dried in a microwave oven 2 min twice. To each sample area 2×50 μL of Betaplate Scint scintillation fluid (LKB) is added and analyzed on a LKB (Wallac) 1205 BetaPlate liquid scintillation counter.
(§1) The data are used to calculate either the % inhibition compared to control binding (when only a single concentration of test compound is evaluated) or a Ki value (when a range of concentrations is tested). % inhibition is calculated as: [(total dpm-test compound dpm)/(total dpm-nonspecific dpm)]*100. Kd and Ki values were calculated using GraphPad PRISM data analysis program.
Male, Wistar rats (150-250 g, VAF, Charles River, Kingston, N.Y.) were killed by cervical dislocation, and their brains removed and placed immediately in ice-cold Tris HCl buffer (50 mM, pH 7.4). The forebrains were separated from the remainder of the brain by a coronal transection, beginning dorsally at the colliculi and passing ventrally through the midbrain-pontine junction. After dissection, the forebrains were homogenized in Tris buffer in a Teflon®-glass homogenizer. The homogenate was diluted to a concentration of 1 g of forebrain tissue per 80 mL Tris and centrifuged at 39,000×g for 10 min. The pellet was resuspended in the same volume of Tris buffer containing 5 mM MgCl2 with several brief pulses from a Polytron homogenizer. This particulate preparation was used for the mu opioid binding assay. Following incubation with 0.8 nM of the mu selective ligand [^3H]DAMGO at 25° C. for 2.5 h in a 96-well plate with total 1 mL, the plate contents were filtered through Wallac filtermat B sheets on a Tomtec 96-well harvester. The filters were rinsed three times with 2 mL of 10 mM HEPES (pH 7.4), and dried in a microwave oven. To each sample area, Betaplate Scint scintillation fluid (LKB) was added and the resulting radioactivity quantified on a LKB (Wallac) 1205 BetaPlate liquid scintillation counter. Kd and Ki values were calculated using the GraphPad PRISM data analysis program.

delta opioid receptor = biological target: T2, delta opioid receptor (Rattus norvegicus, UniProt P33533); experiment: Rat Brain Delta Opioid Receptor Binding Assay ([3H]DPDPE); conditions: rat forebrain membranes, margin of error 10-20%, read-out: r Ki δ
T2 construct: from tissue; host or cells: forebrain of male Wistar rats
Protocol: Male, Wistar rats (150-250 g, VAF, Charles River, Kingston, N.Y.) are killed by cervical dislocation, and their brains removed and placed immediately in ice cold Tris HCl buffer (50 mM, pH 7.4). The forebrains are separated from the remainder of the brain by a coronal transection, beginning dorsally at the colliculi and passing ventrally through the midbrain-pontine junction. After dissection, the forebrains are homogenized in Tris buffer in a Teflon® glass homogenizer. The homogenate is diluted to a concentration of 1 g of forebrain tissue per 80 mL Tris and centrifuged at 39,000×g for 10 min. The pellet is resuspended in the same volume of Tris buffer containing 5 mM MgCl2 with several brief pulses from a Polytron homogenizer. This particulate preparation is used for the delta opioid binding assays. Following incubation with the delta selective peptide ligand ˜4 nM [^3H]DPDPE at 25° C. for 2.5 h in a 96-well plate with total volume of 1 mL, the plate contents are filtered through Wallac filtermat B sheets on a Tomtec 96-well harvester. The filters are rinsed three times with 2 mL of 10 mM HEPES (pH 7.4), and dried in a microwave oven 2 min twice. To each sample area 2×50 μL of Betaplate Scint scintillation fluid (LKB) is added and analyzed on a LKB (Wallac) 1205 BetaPlate liquid scintillation counter.
as §1, with “dpm−test” for “dpm-test”, “dpm−nonspecific” for “dpm-nonspecific”

human mu opioid receptor = biological target: T3, human mu opioid receptor (Homo sapiens, UniProt P35372); experiment: Human Mu Opioid Receptor Binding Assay (CHO membranes, 3H-Damgo); conditions: read-out: hKi μ
T3 construct: purchased Perkin Elmer RBHOMM400UA; host or cells: Chinese Hamster Ovary cells (recombinant expression)
How it was run: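 Radioligand displacement of ³H-Damgo (diluted to 3.6 nM pre-mix) from recombinant human mu receptor in CHO membranes, 2 h, room temperature, 50 mM Tris pH 7.5 with 5 mM MgCl2. Bound label read by filtration and scintillation counting; 1 μM unlabelled Damgo defines nonspecific binding.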

[1] = biological target: T4, mu opioid receptor (CHO-hMOR cell membranes) (Homo sapiens, UniProt P35372); experiment: Mu Opioid Receptor Functional Assay: [35S]GTPγS Binding in CHO-hMOR Cell Membranes, Versions 1 and 2; assay type: biochemical; conditions: for MOR GTP binding assay_v1 (% I): version 1, % inhibition of agonist-stimulated GTPγS binding; for MOR GTP assay_v1 % of Basal: version 1, basal binding = 100%
T4 construct: purchased Receptor Biology, Inc. (Baltimore, Md.); host or cells: CHO cells (recombinant expression)
Protocol: CHO-hMOR cell membranes were purchased from Receptor Biology, Inc. (Baltimore, Md.). About 10 mg/ml of membrane protein was suspended in 10 mM TRIS-HCl pH 7.2, 2 mM EDTA, 10% sucrose, and the suspension kept on ice. One ml of membranes was added to 15 ml cold binding assay buffer containing 50 mM HEPES, pH 7.6, 5 mM MgCl2, 100 mM NaCl, 1 mM DTT and 1 mM EDTA. The membrane suspension was homogenized with a Polytron and centrifuged at 3,000 rpm for 10 min. The supernatant was then centrifuged at 18,000 rpm for 20 min. The pellet was resuspended in 10 ml assay buffer with a Polytron.
The membranes were preincubated with wheat germ agglutinin coated SPA beads (Amersham) at 25° C. for 45 min in the assay buffer. The SPA bead (5 mg/ml) coupled membranes (10 μg/ml) were then incubated with 0.5 nM [^35S]GTPγS in the assay buffer. […] A range of concentrations of receptor agonists was used to stimulate [^35S]GTPγS binding. Both basal and non-specific binding was tested in the absence of agonist; non-specific binding determination included 10 μM unlabeled GTPγS.
Compounds were tested for function as antagonists by evaluating their potential to inhibit agonist-stimulated GTPγS binding. Radioactivity was quantified on a Packard TopCount. The following parameters were calculated:
[formula] % Inhibition=(% stimulation by 1 μM SNC80−% stimulation by 1 μM SNC80 in presence of test compound)×100/(% Stimulation by 1 μM SNC80−100)
EC50 values were calculated using GraphPad Prism.

[2] = biological target: T5, human delta subtype 2 opioid receptor (Homo sapiens, UniProt P41143); experiment: Human Delta Opioid Receptor Binding Assay (CHO membranes, 3H-Naltrindole); conditions: read-out: hKi δ
T5 construct: purchased Perkin Elmer RBHODM400UA; host or cells: Chinese Hamster Ovary cells (recombinant expression)
How it was run: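 Compound displacement of tritiated naltrindole (6 nM working dilution) measured by scintillation counting after GF/C filtration. Receptor source: recombinant CHO membranes; buffer 50 mM Tris, 5 mM MgCl2, pH 7.5; 30 min room-temperature incubation. 1 μM cold naltrindole sets nonspecific binding.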

T3 sequence (P35372 whole entry): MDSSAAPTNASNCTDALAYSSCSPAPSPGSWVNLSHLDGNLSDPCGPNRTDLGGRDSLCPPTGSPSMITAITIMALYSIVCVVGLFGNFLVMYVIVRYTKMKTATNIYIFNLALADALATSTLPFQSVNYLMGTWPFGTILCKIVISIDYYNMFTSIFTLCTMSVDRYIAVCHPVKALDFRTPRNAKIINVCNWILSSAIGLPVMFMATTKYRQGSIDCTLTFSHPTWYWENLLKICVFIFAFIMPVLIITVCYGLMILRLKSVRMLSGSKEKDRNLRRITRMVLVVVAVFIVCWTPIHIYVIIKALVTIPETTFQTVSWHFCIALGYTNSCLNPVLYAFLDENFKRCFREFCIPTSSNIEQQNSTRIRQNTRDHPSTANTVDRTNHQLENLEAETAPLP
T4 sequence (P35372 whole entry): as above
T1 sequence (P33535 whole entry): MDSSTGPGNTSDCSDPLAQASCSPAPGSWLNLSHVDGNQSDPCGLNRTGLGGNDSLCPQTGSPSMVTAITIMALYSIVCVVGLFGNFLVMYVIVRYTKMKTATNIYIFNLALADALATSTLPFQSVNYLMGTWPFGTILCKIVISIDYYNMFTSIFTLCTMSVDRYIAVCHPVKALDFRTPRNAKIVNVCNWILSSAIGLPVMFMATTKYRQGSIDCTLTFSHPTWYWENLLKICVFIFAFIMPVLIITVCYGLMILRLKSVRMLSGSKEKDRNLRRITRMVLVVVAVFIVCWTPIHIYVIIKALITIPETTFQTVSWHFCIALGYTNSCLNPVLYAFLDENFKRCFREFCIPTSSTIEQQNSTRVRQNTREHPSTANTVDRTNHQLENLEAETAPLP
T2 sequence (P33533 whole entry): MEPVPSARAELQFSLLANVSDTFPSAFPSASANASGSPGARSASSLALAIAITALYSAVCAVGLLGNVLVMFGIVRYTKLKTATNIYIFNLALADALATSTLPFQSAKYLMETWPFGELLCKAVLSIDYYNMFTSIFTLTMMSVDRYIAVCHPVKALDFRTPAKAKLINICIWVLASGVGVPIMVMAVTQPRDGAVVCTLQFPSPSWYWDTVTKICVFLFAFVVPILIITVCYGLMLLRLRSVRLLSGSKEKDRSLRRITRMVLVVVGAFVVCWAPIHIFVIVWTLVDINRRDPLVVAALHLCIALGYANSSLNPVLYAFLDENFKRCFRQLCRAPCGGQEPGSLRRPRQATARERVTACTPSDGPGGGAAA
T5 sequence (P41143 whole entry): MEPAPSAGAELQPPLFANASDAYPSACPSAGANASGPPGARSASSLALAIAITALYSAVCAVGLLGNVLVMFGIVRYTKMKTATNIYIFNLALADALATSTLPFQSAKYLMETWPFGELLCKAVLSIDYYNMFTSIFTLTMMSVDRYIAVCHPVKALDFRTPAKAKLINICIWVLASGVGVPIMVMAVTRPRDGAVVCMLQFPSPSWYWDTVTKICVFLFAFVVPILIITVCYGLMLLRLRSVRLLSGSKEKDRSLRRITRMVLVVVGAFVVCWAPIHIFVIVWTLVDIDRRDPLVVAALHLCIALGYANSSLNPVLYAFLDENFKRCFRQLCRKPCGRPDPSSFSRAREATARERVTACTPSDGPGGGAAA

Compound | Ki (mu opioid receptor) [nM] | Ki (delta opioid receptor) [nM] | further results
COC(=O)c1cc(CN(C(=O)[C@@H](N)Cc2ccc(C(N)=O)cc2)[C@H](C)c2nc(-c3ccccc3)c[nH]2)ccc1OC [Cpd 281] | 399 | 721 | –
COc1ccc(CN(C(=O)[C@@H](N)Cc2ccc(O)cc2)[C@@H](C)c2nc(-c3ccccc3)c[nH]2)cc1C(=O)N1CCOCC1 [Cpd 298] | 0.3 | 44 | –
COC(=O)c1cc(CN(C(=O)[C@@H](N)Cc2c(C)cc(C(N)=O)cc2C)[C@H](C)c2nc(-c3ccccc3)c[nH]2)ccc1OC [Cpd 280] | 3 | 32 | –
COc1ccc(CN(C(=O)[C@@H](N)Cc2ccc(O)cc2)[C@@H](C)c2nc(-c3ccccc3)c[nH]2)cc1C(N)=O [Cpd 297] | 0.11 | 44 | –
CC(C)[C@H](NC(=O)[C@@H](N)Cc1cccc(C(N)=O)c1)c1nc(-c2ccccc2)c[nH]1 [Cpd 185] | 6720 | 182 | –
COc1ccc(CN(C(=O)[C@@H](N)Cc2ccc(O)cc2)[C@@H](C)c2nc(-c3ccc(Cl)cc3)c(C)[nH]2)cc1C(=O)O [Cpd 293] | 646 | 3170 | –
COC(=O)c1cc(CN(C(=O)[C@@H](N)Cc2ccc(O)cc2)[C@@H](C)c2nc(-c3ccccc3)c[nH]2)ccc1OC [Cpd 279] | 0.137 | 5.2 | –
CC(C)[C@H](NC(=O)[C@@H](N)Cc1ccc(O)cc1)c1nc(-c2ccccc2)c[nH]1 [Cpd 188] | 307 | 541 | –
Cc1cc(C(N)=O)cc(C)c1C[C@H](N)C(=O)N(Cc1cccc(C(=O)O)c1)[C@@H](C)c1nc(-c2ccc(Cl)cc2)c(C)[nH]1 [Cpd 12] | – | 0.08 | Ki (human mu opioid receptor): 4.1 nM
Cc1cc(O)cc(C)c1C[C@H](N)C(=O)N[C@H](c1nc(-c2ccccc2)c[nH]1)C(C)C [Cpd 187] | 121 | 5200 | –
C[C@@H](NC(=O)[C@@H](N)Cc1ccc(O)cc1)c1nc(-c2ccccc2)c[nH]1 [Cpd 212] | 103 | 1280 | Ki (human mu opioid receptor): 55 nM
CC(C)C[C@@H](c1nc(-c2ccccc2)c[nH]1)N(C)C(=O)[C@@H](N)Cc1cccc(C(N)=O)c1 [Cpd 168] | 5320 | 8870 | –
COc1ccc(CN(C(=O)[C@@H](N)Cc2c(C)cc(C(N)=O)cc2C)[C@H](C)c2nc(-c3ccc(Cl)cc3)c(C)[nH]2)cc1C(=O)O [Cpd 278] | 12 | 49 | –
Cc1cc(O)cc(C)c1C[C@H](N)C(=O)N(Cc1ccccc1)[C@H](C)c1nc(-c2ccccc2)c[nH]1 [Cpd 220] | 157 | 6920 | Ki (human mu opioid receptor): 377 nM
C[C@@H](c1nc(-c2ccccc2)c[nH]1)N(C)C(=O)[C@@H](N)Cc1ccc(S(N)(=O)=O)cc1 [Cpd 189] | 277 | 360 | –
CNC(=O)c1cc(C)c(C[C@H](N)C(=O)N(C)[C@H](C)c2nc(-c3ccccc3)c[nH]2)c(C)c1 [Cpd 184] | 19.5 | – | MOR GTP binding assay_v1 (% I) [1]: 13.00%; MOR GTP assay_v1 % of Basal [1]: 862.00%
Cc1cc(C(=O)N2CCOCC2)cc(C)c1C[C@H](N)C(=O)N(C)[C@H](C)c1nc(-c2ccccc2)c[nH]1 [Cpd 180] | 1210 | 5220 | –
Cc1cc(C(=O)N2CCOCC2)cc(C)c1C[C@H](N)C(=O)N(C)[C@@H](C)c1nc(-c2ccccc2)c[nH]1 [Cpd 179] | 7120 | – | –
Cc1cc(O)cc(C)c1C[C@H](N)C(=O)N(Cc1nc(-c2ccccc2)c[nH]1)C(C)CN(C)C (stereo partly shown) [Cpd 167] | 3.15 | – | Ki (human mu opioid receptor): 4.2 nM; MOR GTP binding assay_v1 (% I) [1]: 17.00%; MOR GTP assay_v1 % of Basal [1]: 780.00%
CC(C)C[C@@H](c1nc(-c2ccccc2)c[nH]1)N(C)C(=O)[C@@H](N)Cc1cccc(C#N)c1 [Cpd 169] | 853 | – | –
COc1ccc(CN(C(=O)[C@@H](N)Cc2c(C)cccc2C)[C@@H](C)c2nc(-c3ccccc3)c[nH]2)cc1C(=O)O [Cpd 292] | 0.65 | 100 | –
CC(C)[C@H](NC(=O)[C@@H](N)Cc1cccc(C#N)c1)c1nc(-c2ccccc2)c[nH]1 [Cpd 186] | 5310 | 515 | –
COC(=O)c1cc(CN(C(=O)[C@H](N)Cc2ccc(C(N)=O)cc2)[C@H](C)c2nc(-c3ccccc3)c[nH]2)ccc1OC [Cpd 284] | 1030 | 1530 | –
COc1ccc(CN(Cc2nc(-c3ccccc3)c[nH]2)C(=O)[C@@H](N)Cc2c(C)cc(C(N)=O)cc2C)cc1C(=O)O [Cpd 6] | – | 1.7 | Ki (human mu opioid receptor): 2 nM
Cc1cc(O)cc(C)c1C[C@H](N)C(=O)N[C@@H](Cc1cccc(C(N)=O)c1)c1nc(-c2ccccc2)c[nH]1 [Cpd 172] | 150 | – | –
Cc1cc(O)cc(C)c1C[C@H](N)C(=O)N[C@@H](CC(C)C)c1nc(-c2ccccc2)c[nH]1 [Cpd 176] | 156 | – | –
Cc1cc(O)cc(C)c1C[C@H](N)C(=O)N(C(C)C)[C@@H](Cc1cccc(C#N)c1)c1nc(-c2ccccc2)c[nH]1 [Cpd 122] | – | – | Ki (human mu opioid receptor): 12.8 nM; Ki [2]: 107 nM; MOR GTP binding assay_v1 (% I) [1]: 41.93%; MOR GTP assay_v1 % of Basal [1]: 278.08%
CC(C)[C@@H](c1nc(-c2ccccc2)c[nH]1)N(C)C(=O)[C@@H](N)Cc1ccc(O)cc1 [Cpd 171] | 141 | – | –
